Experimental data taken from US7517857B2, “Immune-modulating peptide” (POSCO, priority 2002, dated 2009).
Where a SMILES comes first, the peptide text is derived from it. [ ]: non-standard residue; d: D form.

Experiments:
Assay type in all cases: cell-based
FPR [1] = biological target: T1, FPR (Homo sapiens, UniProt P21462); assay: ERK phosphorylation in FPR-expressing RBL-2H3 cells (immunoblot); settings: pretreatment prior to 1 μM WKYMVm, PTX 100 ng/ml, LY294002 50 μM, GFX 5 μM, BAPTA/AM 10 μM, PD98059 50 μM
T1 construct: expressed in transfected cells; host or cells: RBL-2H3 (rat basophilic leukemia) cells, G418-selected
T1 sequence (P21462 1-350): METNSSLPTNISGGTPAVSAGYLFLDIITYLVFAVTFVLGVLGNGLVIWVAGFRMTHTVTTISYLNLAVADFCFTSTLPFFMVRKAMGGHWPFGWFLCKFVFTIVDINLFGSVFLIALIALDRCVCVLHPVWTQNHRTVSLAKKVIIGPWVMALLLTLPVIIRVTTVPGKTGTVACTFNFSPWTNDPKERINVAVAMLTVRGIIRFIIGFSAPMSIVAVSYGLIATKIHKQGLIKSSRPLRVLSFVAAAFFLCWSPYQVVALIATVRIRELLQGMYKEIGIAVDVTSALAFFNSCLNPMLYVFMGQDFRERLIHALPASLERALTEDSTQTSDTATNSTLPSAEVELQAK
Method: (§1) Cultured RBL-2H3 cells were aliquoted into 2×10^6 cells and stimulated with the indicated concentrations of WKYMVm and the peptides of the present invention for the indicated lengths of time. FPR- or FPRL1-expressing RBL-2H3 cells were stimulated with 1 μM WKYMVm for various periods of time (FIG. 3A). Two cells were preincubated with a vehicle or 100 ng/ml of PTX (24 hr), 50 μM of LY294002 (15 min), 5 μM of GFX (15 min), 10 μM BAPTA/AM (60 min), or 50 μM PD98059 (60 min) prior to 1 μM of WKYMVm treatment (FIG. 3B). FPR- or FPRL1-expressing RBL2H3 cells were stimulated with 10 μM of the peptides of the present invention for 2 min or 5 min, respectively (FIG. 3C).
(§2) After stimulation, the cells were washed with serum-free RPMI and lysed in a lysis buffer (20 mM Hepes, pH 7.2, 10% glycerol, 150 mM NaCl, 1% Triton X-100, 50 mM NaF, 1 mM Na3VO4, 10 μg/ml leupeptin, 10 μg/ml aprotinin, and 1 mM phenylmethylsulfonyl fluoride). The detergent-insoluble materials were pelleted by centrifugation (12,000×g, 15 min, at 4° C.), and the soluble supernatant fraction was removed and stored at −80° C. or used immediately. Protein concentrations in the lysates were determined using the Bradford protein assay reagent.
(§3) Each sample ([…] of protein) was subjected to 10% SDS-PAGE and phosphorylated ERK was determined by an immunoblot analysis with an anti-phospho-ERK antibody. Protein samples were prepared for electrophoresis by addition of a concentrated sample buffer. The portions in the samples were then separated by an 10% SDS-polyacrylamide gel using the buffer system described by Laemmli (17).
(§4) Following the electrophoresis, a western blot analysis with an anti-ERK2 antibody was performed to confirm that the same amounts of samples were used for the experiments. The proteins were blotted onto nitrocellulose membranes. The nitrocellulose membranes were then blocked by incubation with TBS (Tris-buffered saline, 0.05% Tween-20) containing 5% non-fat dry milk. Subsequently, the membranes were incubated with anti-phospho-ERK antibody, anti-phospho-Akt antibody or anti-Akt antibody washed with TBS. For a PKC translocation assay, an antibody for PKC isozyme-specific was incubated. Antigen-antibody complexes were visualized after incubating the membrane with a 1:5000 diluted goat anti-rabbit IgG or goat anti-mouse IgG antibody coupled to horseradish peroxidase and using the enhanced chemiluminescence detection system.

FPRL1 [2] = biological target: T2, FPRL1 (Homo sapiens, UniProt P25090); assay: ERK phosphorylation in FPRL1-expressing RBL-2H3 cells (immunoblot); settings: pretreatment prior to 1 μM WKYMVm, PTX 100 ng/ml, LY294002 50 μM, GFX 5 μM, BAPTA/AM 10 μM, PD98059 50 μM
T2 construct: expressed in transfected cells; host or cells: RBL-2H3 (rat basophilic leukemia) cells, G418-selected
T2 sequence (P25090 1-351): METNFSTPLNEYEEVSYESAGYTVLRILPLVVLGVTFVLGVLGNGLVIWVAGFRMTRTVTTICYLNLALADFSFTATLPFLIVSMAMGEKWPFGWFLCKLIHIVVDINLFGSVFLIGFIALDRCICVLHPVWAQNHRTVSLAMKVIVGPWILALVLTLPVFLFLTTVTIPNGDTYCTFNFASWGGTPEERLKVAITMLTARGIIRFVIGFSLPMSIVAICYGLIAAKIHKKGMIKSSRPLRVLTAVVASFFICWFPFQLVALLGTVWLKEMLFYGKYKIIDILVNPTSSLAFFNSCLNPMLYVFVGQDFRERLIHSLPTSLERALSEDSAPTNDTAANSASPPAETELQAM
Method: as §1, §2, §3, §4

FPRL1 [3] = biological target: T2, FPRL1; assay: Chemotaxis of FPRL1-expressing RBL-2H3 cells (modified Boyden chamber); settings: FPRL1 cells; 50 μM LY294002 (15 min), 50 μM PD98059 (60 min); 1 μM WKYMVm
Method: (§5) Chemotaxis assays were performed using multiwell chambers (modified Boyden chamber assay) (Neuroprobe Inc., Gaithersburg, Md.) (18). Briefly, polycarbonate filters (8 μm pore size) were precoated with 50 μg/ml of rat type I collagen (Collaborative Biomedicals) in a HEPES-buffered RPMI 1640 medium. A dry coated filter was placed on a 96-well chamber containing different concentrations of peptides. RBL-2H3 cells expressing FPR or FPRL1 were suspended in RPMI at a concentration of 1×10^6 cells/ml of serum-free RPMI, and 25 μl of the suspension were placed onto the upper well of the 96-well chemotaxis chamber. After incubation for 4 hours at 37° C., non-migrated cells were removed by scraping them out, and cells that migrated across the filter were dehydrated, fixed, and stained with hematoxylin (Sigma, St. Louis, Mo.). The stained cells in five randomly chosen high power fields (HPF) (400×) in that well were then counted. […] The numbers of migrated cells were determined by counting them in a high power field (400×). The Data are presented as means ±SE of three independent experiments each performed in duplicate. The effect of the peptides of the present invention on cellular chemotaxis in FPR- or FPRL1-expressing RBL-2H3 cells was measured. Various concentrations of each peptide were used for the chemotaxis assay with FPR- or FPRL1-expressing RBL-2H3 cells. The numbers of migrated cells were determined by counting them in a high power field (400×). The Data are presented as means ±SE of two independent experiments each performed in duplicates.

FPR [4] = biological target: T1, FPR; assay: Chemotaxis of FPR-expressing RBL-2H3 cells (modified Boyden chamber); settings: FPR cells; 50 μM LY294002 (15 min), 50 μM PD98059 (60 min); 1 μM WKYMVm
Method: as §5

human neutrophils = assay: Superoxide generation in human neutrophils (cytochrome c reduction); settings: cytochrome c reduction
Method: Peripheral blood leukocyte concentrates were donated by the Ulsan Red Cross Blood Center (Ulsan, Korea). Human neutrophils were isolated according to the standard procedures of dextran sedimentation, hypotonic lysis of erythrocytes, and a lymphocyte separation medium gradient as described above (9). The isolated human neutrophils were then used promptly.
The activity of the peptides, WKYMVm, peptides of SEQ ID NOs: 1 to 24, and wkymvm on superoxide generation in human neutrophils was measured. Superoxide anion generation was quantified by measuring reduction of cytochrome c using a microtiter 96-well plate ELISA reader (Bio-Tekinstruments, EL312e, Winooski, Vt.) as described (14). The human neutrophils (1×10^6 cells/100 μl of RPMI 1640 medium per well of a 96-well plate) were preincubated with 50 μM cytochrome c at 37° C. for 1 min and then incubated with the indicated concentrations of peptides. The superoxide generation was measured as a change in light absorption at 550 nm over 5 minutes at 1 min intervals. From at least four independent experiments, peptides with active amino acids at each position were chosen.

FPR [5] = biological target: T1, FPR; assay: [Ca2+]i increase in FPR-expressing RBL-2H3 cells (fura-2)
FPRL1 [6] = biological target: T2, FPRL1; assay: [Ca2+]i increase in FPRL1-expressing RBL-2H3 cells (fura-2)
Method: […] The level of [Ca^2+]i was determined fluorometrically by Grynkiewicz's method using fura-2/AM (15). Briefly, prepared cells were incubated with 3 μM fura-2/AM at 37° C. for 50 min in a fresh serum-free RPMI 1640 medium under continuous stirring. 2×10^6 cells were aliquoted for each assay in Ca^2+-free Locke's solution (154 mM NaCl, 5.6 mM KCl, 1.2 mM MgCl2, 5 mM HEPES, pH 7.3, 10 mM glucose, and 0.2 mM EGTA). Fluorescence changes at the dual excitation wavelengths of 340 nm and 380 nm and the emission wavelength of 500 nm were measured, and the calibrated fluorescence ratio was translated into [Ca^2+]i. The peak level of the increased [Ca^2+]i was monitored.
[…] The level of [Ca^2+]i was determined by the same procedures as above. The peak level of the increased [Ca^2+]i was monitored.

FPRL1 [7] = biological target: T2, FPRL1; assay: Exocytosis: β-hexosaminidase secretion in FPRL1-expressing RBL-2H3 cells; settings: FPRL1 cells; 10 μM of each peptide (WKYMVm also various concentrations)
Method: Granule secretion is one of the most important function of mast cells (20). The effect of WKYMVm on granule secretion was checked by measuring β-hexosaminidase secretion as described above (18). Briefly, RBL-2H3 cells (2×10^5/well) expressing FPR or FPRL1 were cultured overnight in a 24-well tissue culture plate. The cells were washed twice with Tyrode's buffer (137 mM NaCl, 12 mM NaHCO3, 5.6 mM glucose, 2.7 mM KCl, 1 mM CaCl2, 0.5 mM MgCl2, 0.4 mM NaH2PO4, 0.1g/100 ml BSA, and 25 mM HEPES, pH 7.4) and stimulated with each peptide. Various concentrations of WKYMVm were treated in FPR- or FPRL1-expressing RBL-2H3 cells (FIG. 5A). 1 μM of WKYMVm was used to stimulate two cell lines in the absence or presence of 10 μM BAPTA/AM (FIG. 5B). The reaction was terminated 20 min after stimulation by placing the plate on ice. Secretion of β-hexosaminidase into the medium was determined by incubating 50 μl of supernatant or cell lysate with 25 μl of 5 mM p-nitrophenyl-N-acetyl-β-D-glucosamide in 0.1 M sodium citrate buffer (pH 3.8) at 37° C. for 2 hr. At the end of the incubation, 50 μl of 0.4 M Na2CO3 were added. Absorbance was monitored at 405 nm. Data are means ±S.E. of a single representative of three experiments performed in triplicate. Values (means ±S.E.) were expressed as a percent of total β-hexosaminidase present in the cells.
10 μM of each peptide was treated in FPR- (FIG. 6A) or FPRL1-expressing RBL-2H3 cells (FIG. 6B). The peptide-induced secretion of β-hexosaminidase was determined as above. Data are means ±S.E. of a single representative of three experiments performed in triplicate.

CN(C)CCCn1cc(C2=C(c3c[nH]c4ccccc34)C(=O)NC2=O)c2ccccc21 [GF109203X]
effect of inhibitor pretreatment on WKYMVm-induced ERKs activation (FPR [1]): could not effect WKYMVm-induced ERK activation
effect of inhibitor pretreatment on WKYMVm-induced ERKs activation (FPRL1 [2]): could not effect WKYMVm-induced ERK activation

COc1cccc(-c2cc(=O)c3ccccc3o2)c1N [PD98059, reference compound]
effect of inhibitor pretreatment on WKYMVm-induced cellular chemotaxis (FPRL1 [3]): sensitive
effect of inhibitor pretreatment on WKYMVm-induced ERKs activation (FPR [1]): sensitive
effect of inhibitor pretreatment on WKYMVm-induced cellular chemotaxis (FPR [4]): sensitive
effect of inhibitor pretreatment on WKYMVm-induced ERKs activation (FPRL1 [2]): sensitive

Cn1cc(C2=C(c3cn(CCCSC(=N)N)c4ccccc34)C(=O)NC2=O)c2ccccc21 [Ro-31-8220]
effect of inhibitor pretreatment on WKYMVm-induced ERKs activation (FPR [1]): could not effect WKYMVm-induced ERK activation
effect of inhibitor pretreatment on WKYMVm-induced ERKs activation (FPRL1 [2]): could not effect WKYMVm-induced ERK activation

CSCC[C@H](NC(=O)[C@H](Cc1ccc(O)cc1)NC(=O)[C@H](CCCCN)NC(=O)[C@@H](N)Cc1c[nH]c2ccccc12)C(=O)NCC(=O)N[C@H](CCSC)C(N)=O [WKYMGm-NH2, Trp-Lys-Tyr-Met-Gly-D-Met-NH2] (H-WKYMG[dM]-NH2; N-terminus assumed)
O^2− (nmol/10^6 cells), superoxide generation (human neutrophils; peptide 100 nM): 1.1 ± 0.05 nmol/10^6 cells
O^2− (nmol/10^6 cells), superoxide generation (human neutrophils; peptide 10 μM): 27.3 ± 2.61 nmol/10^6 cells
[Ca^2+]i increasing activity (FPR [5]): did not effect a [Ca^2+]i increase until 20 μM treatment
EC50 (nM), intracellular calcium increase (FPR [5]; fura-2 loaded): inactive
[Ca^2+]i increasing activity (FPRL1 [6]): showed [Ca^2+]i-increasing activity in FPRL1 cells, with a little lower affinity to FPRL1

CSCC[C@H](NC=O)C(=O)N[C@@H](CC(C)C)C(=O)N[C@@H](Cc1ccccc1)C(=O)O [fMLF, N-formyl-methionyl-leucyl-phenylalanine]
granule secretion / β-hexosaminidase release (words) (FPRL1 [7]): but not fMLF or wkymvm, stimulated granule secretion
